# Data: US9169254B2, “Spiroimidazolone derivative” (Chugai Seiyaku Kabushiki Kaisha, priority 2009, dated 2015)
# Biological target: T1, human PTH1 receptor (Homo sapiens, UniProt Q03431)
# T1 sequence (Q03431 27-593): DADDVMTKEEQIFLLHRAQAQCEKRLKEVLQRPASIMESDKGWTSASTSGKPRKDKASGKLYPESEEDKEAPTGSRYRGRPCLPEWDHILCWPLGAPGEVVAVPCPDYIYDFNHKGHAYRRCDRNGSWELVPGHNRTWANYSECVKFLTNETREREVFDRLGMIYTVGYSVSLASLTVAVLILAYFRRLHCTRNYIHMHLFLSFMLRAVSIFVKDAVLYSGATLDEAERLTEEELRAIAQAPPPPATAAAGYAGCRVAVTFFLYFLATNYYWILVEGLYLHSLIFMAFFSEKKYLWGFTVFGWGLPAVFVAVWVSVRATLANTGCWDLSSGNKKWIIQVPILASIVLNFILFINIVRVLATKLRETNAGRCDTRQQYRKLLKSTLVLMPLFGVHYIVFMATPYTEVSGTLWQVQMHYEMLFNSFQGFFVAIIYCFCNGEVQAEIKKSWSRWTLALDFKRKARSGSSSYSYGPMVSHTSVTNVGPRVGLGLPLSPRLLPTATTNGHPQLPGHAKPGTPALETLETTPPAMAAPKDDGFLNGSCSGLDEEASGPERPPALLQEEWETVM
# Test: In vitro cAMP signal activity in HKRK-B7 cells (LLC-PK1 cells overexpressing the human PTH1 receptor)
# Type: cell-based
# Conditions: HKRK-B7 cells; compound at 1×10^−3 M; cAMP produced as percentage of that produced by hPTH(1-34) at 100 nM
row,SMILES,cAMP production activity (%)
1,"Cc1cc(C(=O)N(C)C)ccc1CCS(=O)(=O)N1CCC2(CC1)N=C(c1cccc(C(F)(F)F)c1C)NC2=O [Compound 111, 3,N,N-trimethyl-4-{2-[2-(2-methyl-3-trifluoromethyl-phenyl)-4-oxo-1,3,8-triaza-spiro[4.5]dec-1-ene-8-sulfonyl]-ethyl}-benzamide]",93
2,"Cc1cc(N(C)C(N)=O)cc(C)c1CCS(=O)(=O)N1CCC2(CC1)N=C(C1CCC(C)(C)CC1)NC2=O [Compound 938, 1-(4-{2-[2-(4,4-dimethyl-cyclohexyl)-4-oxo-1,3,8-triaza-spiro[4.5]dec-1-ene-8-sulfonyl]-ethyl}-3,5-dimethyl-phenyl)-1-methyl-urea]",97
3,"Cc1noc(C)c1-c1ccccc1CCS(=O)(=O)N1CCC2(CC1)N=C(C1CCCCC1)NC2=O [Compound 338, 2-Cyclohexyl-8-{2-[2-(3,5-dimethyl-isoxazol-4-yl)-phenyl]-ethanesulfonyl}-1,3,8-triaza-spiro[4.5]dec-1-en-4-one]",60
4,"Cn1ccc2cccc(CCS(=O)(=O)N3CCC4(CC3)N=C(c3cccc(OC(F)(F)F)c3)NC4=O)c21 [Compound 308, 8-[2-(1-methyl-1H-indol-7-yl)-ethanesulfonyl]-2-(3-trifluoromethoxy-phenyl)-1,3,8-triaza-spiro[4.5]dec-1-en-4-one]",72
5,"O=C1NC(C2CCC(F)(F)CC2)=NC12CCN(S(=O)(=O)/C=C/c1cccc3c1ccn3C[C@H](O)CO)CC2 [Compound 241, 2-(4,4-difluoro-cyclohexyl)-8-{(E)-2-[1-((S)-2,3-dihydroxy-propyl)-1H-indol-4-yl]-ethenesulfonyl}-1,3,8-triaza-spiro[4.5]dec-1-en-4-one]",44
6,"Cc1cc(N(C)C(N)=O)cc(C)c1CCS(=O)(=O)N1CCC2(CC1)N=C(c1cccc(SC(F)(F)F)c1)NC2=O [Compound 1306, 1-(3,5-dimethyl-4-{2-[4-oxo-2-(3-trifluoromethylsulfanyl-phenyl)-1,3,8-triaza-spiro[4.5]dec-1-ene-8-sulfonyl]-ethyl}-phenyl)-1-methyl-urea]",159
7,"O=C1NC(c2cccc(OC(F)(F)F)c2)=NC12CCN(S(=O)(=O)CCc1cccc3cnccc13)CC2 [Compound 653, 8-(2-Isoquinolin-5-yl-ethanesulfonyl)-2-(3-trifluoromethoxy-phenyl)-1,3,8-triaza-spiro[4.5]dec-1-en-4-one]",67
8,"O=C(NCc1ccccc1)c1ccccc1S(=O)(=O)N1CCC2(CC1)N=C(C1CCCCC1)NC2=O [Compound 347, N-Benzyl-2-(2-cyclohexyl-4-oxo-1,3,8-triaza-spiro[4.5]dec-1-ene-8-sulfonyl)-benzamide]",23
9,"CC1(C)OC[C@H](Cn2ccc3c(/C=C/S(=O)(=O)N4CCC5(CC4)N=C(C4CCC(C(F)(F)F)CC4)NC5=O)cccc32)O1 (stereo partly drawn) [Compound 245, 8-{(E)-2-[1-((S)-2,2-dimethyl-[1,3]dioxolan-4-ylmethyl)-1H-indol-4-yl]-ethenesulfonyl}-2-(4-trifluoromethyl-cyclohexyl)-1,3,8-triaza-spiro[4.5]dec-1-en-4-one]",34
10,"Cc1cc(CN2C(=O)CNC2=O)cc(C)c1CCS(=O)(=O)N1CCC2(CC1)N=C(C1CCC(CCC(F)(F)F)CC1)NC2=O (stereo not drawn) [Compound 774, 3-[3,5-dimethyl-4-(2-{4-oxo-2-[4-(3,3,3-trifluoro-propyl)-cyclohexyl]-1,3,8-triaza-spiro[4.5]dec-1-ene-8-sulfonyl}-ethyl)-benzyl]-imidazolidine-2,4-dione]",80
11,"CC(C)(C)CNC(=O)Cc1ccc(/C=C/S(=O)(=O)N2CCC3(CC2)N=C(C2CCCCC2)NC3=O)cc1 [Compound 570, 2-{4-[(E)-2-(2-cyclohexyl-4-oxo-1,3,8-triaza-spiro[4.5]dec-1-ene-8-sulfonyl)-vinyl]-phenyl}-N-(2,2-dimethyl-propyl)-acetamide]",66
12,"Cc1cc(C(=O)N2CC[C@@H](O)C2)ccc1CCS(=O)(=O)N1CCC2(CC1)N=C(c1cccc(C(F)(F)F)c1)NC2=O [Compound 355, 8-{2-[4-((R)-3-hydroxy-pyrrolidine-1-carbonyl)-2-methyl-phenyl]-ethanesulfonyl}-2-(3-trifluoromethyl-phenyl)-1,3,8-triaza-spiro[4.5]dec-1-en-4-one]",84
13,"O=C1NC(C2CCCCC2)=NC12CCN(S(=O)(=O)CCCc1cccc(C(F)(F)F)c1)CC2 [Compound 315, 2-cyclohexyl-8-[3-(3-trifluoromethyl-phenyl)-propane-1-sulfonyl]-1,3,8-triaza-spiro[4.5]dec-1-en-4-one]",26
14,"Cc1cc(N2C(=O)CNC2=O)cc(C)c1/C=C/S(=O)(=O)N1CCC2(CC1)N=C(c1ccc(F)c(C(F)(F)F)c1)NC2=O [Compound 636, 3-(4-{(E)-2-[2-(4-Fluoro-3-trifluoromethyl-phenyl)-4-oxo-1,3,8-triaza-spiro[4.5]dec-1-ene-8-sulfonyl]-vinyl}-3,5-dimethyl-phenyl)-imidazolidine-2,4-dione]",88
15,"Cc1cc(N(C)C(N)=O)cc(C)c1CC1(S(=O)(=O)N2CCC3(CC2)N=C(c2cccc(OC(F)(F)F)c2)NC3=O)CC1 [Compound 1084, 1-(3,5-Dimethyl-4-{1-[4-oxo-2-(3-trifluoromethoxy-phenyl)-1,3,8-triaza-spiro[4.5]dec-1-ene-8-sulfonyl]-cyclopropylmethyl}-phenyl)-1-methyl-urea]",13
16,"O=C1NC(c2cccc(C(F)(F)F)c2)=NC12CCN(S(=O)(=O)/C=C/c1ccc(NCCO)cc1C(F)(F)F)CC2 [Compound 211, 8-{(E)-2-[4-(2-hydroxy-ethylamino)-2-trifluoromethyl-phenyl]-ethenesulfonyl}-2-(3-trifluoromethyl-phenyl)-1,3,8-triaza-spiro[4.5]dec-1-en-4-one]",60
17,"Cc1cc(C(=O)N2CCC(O)CC2)cc(C)c1/C=C/S(=O)(=O)N1CCC2(CC1)N=C(c1cccc(C(F)(F)F)c1F)NC2=O [Compound 244, 2-(2-fluoro-3-trifluoromethyl-phenyl)-8-{(E)-2-[4-(4-hydroxy-piperidine-1-carbonyl)-2,6-dimethyl-phenyl]-ethenesulfonyl}-1,3,8-triaza-spiro[4.5]dec-1-en-4-one]",83
18,"Cc1ccccc1/C=C/S(=O)(=O)N1CCC2(CC1)N=C(C1CCCCC1)NC2=O [Compound 186, 2-cyclohexyl-8-((E)-2-o-tolyl-ethenesulfonyl)-1,3,8-triaza-spiro[4.5]dec-1-en-4-one]",51
19,"CC(=O)N(CCOCCF)c1ccc(CCS(=O)(=O)N2CCC3(CC2)N=C(C2CCC(CCC(F)(F)F)CC2)NC3=O)c(C)c1 (stereo not drawn) [Compound 757, N-[2-(2-fluoro-ethoxy)-ethyl]-N-[3-methyl-4-(2-{4-oxo-2-[4-(3,3,3-trifluoro-propyl)-cyclohexyl]-1,3,8-triaza-spiro[4.5]dec-1-ene-8-sulfonyl}-ethyl)-phenyl]-acetamide]",79
20,"O=C1NC(c2ccc(Cl)cc2Cl)=NC12CCN(S(=O)(=O)/C=C/c1cccc3c1ccn3C[C@H](O)CO)CC2 [Compound 249, 2-(2,4-dichloro-phenyl)-8-{(E)-2-[1-((S)-2,3-dihydroxy-propyl)-1H-indol-4-yl]-ethenesulfonyl}-1,3,8-triaza-spiro[4.5]dec-1-en-4-one]",71
21,"CCCCC1CCC(C2=NC3(CCN(S(=O)(=O)/C=C/c4c(C)cc(N(CCOCCOC)C(C)=O)cc4C)CC3)C(=O)N2)CC1 (stereo not drawn) [Compound 561, N-(4-{(E)-2-[2-(4-butyl-cyclohexyl)-4-oxo-1,3,8-triaza-spiro[4.5]dec-1-ene-8-sulfonyl]-vinyl}-3,5-dimethyl-phenyl)-N-[2-(2-methoxy-ethoxy)-ethyl]-acetamide]",52
22,"CCCC1=NC2(CCN(S(=O)(=O)c3cccc(Cl)c3)CC2)C(=O)N1 [Compound 3, 8-(3-chloro-benzenesulfonyl)-2-propyl-1,3,8-triaza-spiro[4.5]dec-1-en-4-one]",20
23,"[2H]C([2H])([2H])C([2H])([2H])C([2H])([2H])C([2H])([2H])Oc1cc(C2=NC3(CCN(S(=O)(=O)/C=C/c4c(C)cc(C(=O)N5CCC(C)(O)CC5)cc4C)CC3)C(=O)N2)cc(C(F)(F)F)c1 [Compound 1233, 2-(3-[1,1,2,2,3,3,4,4,4-^2H9]butoxy-5-trifluoromethyl-phenyl)-8-{(E)-2-[4-(4-hydroxy-4-methyl-piperidine-1-carbonyl)-2,6-dimethyl-phenyl]-ethenesulfonyl}-1,3,8-triaza-spiro[4.5]dec-1-en-4-one]",78

# Same assay, conditions: HKRK-B7 cells; compound at 3×10^−4 M (* Compound 15); cAMP produced as percentage of that produced by hPTH(1-34) at 100 nM
row,SMILES,cAMP production activity (%)
1,"CC(=O)N1CCC(C2=NC3(CCN(S(=O)(=O)c4cccc(Cl)c4)CC3)C(=O)N2)CC1 [Compound 15, 2-(1-acetyl-piperidin-4-yl)-8-(3-chloro-benzenesulfonyl)-1,3,8-triaza-spiro[4.5]dec-1-en-4-one]",1.8* %
